Active and inactive are the calls of the source.
Key:
[1] = target: Troponin, cardiac muscle (Homo sapiens, UniProt P19429+P45379+P63316); test: Fluorescence-based biochemical high throughput dose response assay for activators of the calcium sensitivity of cardiac Regulated Thin Filaments (RTF). [Related pubchem assays (depositor defined):AID493008, AID493018, AID504382, AID504383]; assay type: protein-complex assay
[2] = viability of PTEN-deleted HCT116 cells – cell-based, HCT116 PTEN knockout, dose response (AID 1047); assay type: functional;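 note: HCT116 colon tumor cells with PTEN knocked out; cells exposed to compound for 60 hours before readout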
[3] = target: Beta Lactamase (Pseudomonas aeruginosa, UniProt Q932Y6); test: BLA reporter interference, concentration series – BLA reporter cells, FRET fluorescence, artefact control for TLR9-MyD88 binding inhibitor project, dose response (AID 588341); assay type: cell-based;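 note: cell based assay in CHO-K1 cells stably expressing beta-lactamase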
[4] = target: DNA damage-inducible transcript 3 protein (Mus musculus, UniProt P35639); assay type: functional, Cricetulus griseus
[5] = system: INS1; test: INS-1E survival protection against cytokine death – cell-based, luminescence, retest, dose response (AID 449756); assay type: functional; settings: Rattus norvegicus;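 note: cell death triggered by IL-1 beta plus TNF-alpha plus IFN-gamma mixture; protective hits raise ATP signal compared with cytokine alone wells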
[6] = viability of HCT116 lacking mutant beta-catenin – cell-based, human colon tumor, dose response (AID 1045); assay type: functional;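 note: HCT116 colon tumor cells with beta catenin knocked out; cells exposed to compound for 60 hours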
[7] = system: CHO; test: CHO cell viability loss, potency – luminescence, cytotoxicity control for TLR9-MyD88 binding inhibitor project, dose response (AID 588339); assay type: functional, cell-based, hamster; settings: Cricetulus griseus;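 note: CHO cells stably coexpressing TLR9 and MyD88 fusions from primary screen; compound exposure lasted 48 hours before viability readout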
[8] = target: T1, Glutathione-S-transferase (Schistosoma japonicum, UniProt Q26513); test: GST-antibody interaction or FRET quenching – biochemical, TR-FRET, artefact control for Vif-APOBEC3G degradation inhibitor project, dose response (AID 1117362); assay type: functional
T1 sequence (Q26513 whole entry): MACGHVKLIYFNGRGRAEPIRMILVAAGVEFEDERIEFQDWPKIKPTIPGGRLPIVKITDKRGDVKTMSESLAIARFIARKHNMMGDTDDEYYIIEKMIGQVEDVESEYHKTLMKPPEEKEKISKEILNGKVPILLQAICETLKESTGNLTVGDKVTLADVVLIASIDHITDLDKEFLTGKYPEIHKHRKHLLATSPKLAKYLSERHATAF

[9] = target: Induced myeloid leukemia cell differentiation protein Mcl-1 (Homo sapiens, UniProt Q07820); assay type: functional
[10] = target: T2, Tyrosine-protein phosphatase non-receptor type 7 (Homo sapiens, UniProt P35236); test: redox-active compounds inhibiting HePTP phosphatase – biochemical, fluorescence, mechanism study (AID 2068); assay type: functional
T2 sequence (P35236 whole entry): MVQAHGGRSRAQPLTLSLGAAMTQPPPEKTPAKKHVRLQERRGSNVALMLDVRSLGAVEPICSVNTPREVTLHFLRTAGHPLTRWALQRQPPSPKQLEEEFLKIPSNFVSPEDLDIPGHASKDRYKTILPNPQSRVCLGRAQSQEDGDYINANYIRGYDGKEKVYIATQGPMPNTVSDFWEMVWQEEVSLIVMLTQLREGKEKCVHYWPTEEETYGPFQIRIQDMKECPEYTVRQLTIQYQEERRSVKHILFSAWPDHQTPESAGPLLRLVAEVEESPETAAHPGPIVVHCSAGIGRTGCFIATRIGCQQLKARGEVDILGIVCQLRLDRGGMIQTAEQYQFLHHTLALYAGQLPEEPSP

[11] = target: Eukaryotic translation initiation factor 4E (Mus musculus, UniProt P63073); test: blockers of eIF4G binding by eIF4E – biochemical, TR-FRET, dose response (AID 855); assay type: functional;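 note: potency for disrupting eIF4E binding to eIF4GI seen as loss of FRET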
[12] = target: G-protein coupled receptor 55 (Homo sapiens, UniProt Q9Y2T6); test: inhibition of LPI-stimulated GPR55 beta-arrestin translocation – imaging, U2OS, beta-arrestin-GFP, LPI agonist, primary screen (AID 2013); assay type: functional;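 note: antagonist potency measured as reduced agonist-driven arrestin aggregation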
[13] = target: Tumor necrosis factor (Homo sapiens, UniProt P01375); test: analog potency on TNFa NF-kB signaling – cell-based, revised, SAR follow-up (AID 2337); assay type: functional
[14] = target: T3, Nucleotide-binding oligomerization domain-containing protein 1 (Homo sapiens, UniProt Q9Y239); test: blockers of NOD1 pathway activity – revised, SAR follow-up (AID 2333); assay type: functional
T3 sequence (Q9Y239 whole entry): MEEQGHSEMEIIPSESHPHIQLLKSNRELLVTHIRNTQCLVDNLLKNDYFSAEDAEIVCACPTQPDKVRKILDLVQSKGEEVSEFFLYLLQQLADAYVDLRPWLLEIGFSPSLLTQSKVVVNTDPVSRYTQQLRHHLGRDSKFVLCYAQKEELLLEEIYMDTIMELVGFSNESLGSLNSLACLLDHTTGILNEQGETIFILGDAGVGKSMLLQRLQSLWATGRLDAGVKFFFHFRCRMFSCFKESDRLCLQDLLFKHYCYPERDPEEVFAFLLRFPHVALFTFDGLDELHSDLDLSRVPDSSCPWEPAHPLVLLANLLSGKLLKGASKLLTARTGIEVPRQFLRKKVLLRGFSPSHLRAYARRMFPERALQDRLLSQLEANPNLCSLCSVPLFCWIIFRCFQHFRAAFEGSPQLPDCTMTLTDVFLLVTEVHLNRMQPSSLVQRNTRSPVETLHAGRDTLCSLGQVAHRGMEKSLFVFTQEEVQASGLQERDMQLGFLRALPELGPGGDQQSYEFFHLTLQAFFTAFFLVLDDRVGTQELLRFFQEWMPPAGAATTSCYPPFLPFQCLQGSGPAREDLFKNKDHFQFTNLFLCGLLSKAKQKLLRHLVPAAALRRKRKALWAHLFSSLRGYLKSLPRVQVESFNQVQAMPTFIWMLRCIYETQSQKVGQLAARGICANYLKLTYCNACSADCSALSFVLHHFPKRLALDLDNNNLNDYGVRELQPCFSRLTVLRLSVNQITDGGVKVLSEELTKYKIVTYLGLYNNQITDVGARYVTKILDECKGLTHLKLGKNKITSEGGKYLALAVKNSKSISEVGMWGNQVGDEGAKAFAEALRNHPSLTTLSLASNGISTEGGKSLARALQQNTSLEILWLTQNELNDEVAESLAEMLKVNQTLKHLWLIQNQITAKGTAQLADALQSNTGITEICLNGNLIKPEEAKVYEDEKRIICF

[15] = target: Nucleotide-binding oligomerization domain-containing protein 2 (Homo sapiens, UniProt Q9HC29); test: inhibition of NOD2-driven NF-kB reporter – cell-based, luminescence, uHTS, HEK293 (AID 1566); assay type: functional
[16] = alpha-synuclein stem-loop luciferase translation blockers – H4 neuroglioma cells, luminescence, confirmation (AID 1988); assay type: functional, cell-based
[17] = Luminescence Cell-Based Dose Response HTS to Identify Inhibitors of 5'UTR Stem-Loop Driven Prion Protein mRNA Translation in H4 Neuroglioblastoma Cells. [Related pubchem assays: 1827 (Project Summary), 1813 (Primary HTS)]; assay type: functional
[18] = luciferase reporter signal suppression in cells – H4 neuroglioma cells, luminescence, dose response (AID 1990); assay type: functional, cell-based
[19] = target: G-protein coupled receptor 35 (Homo sapiens, UniProt Q9HC97); test: inhibition of zaprinast-stimulated GPR35 beta-arrestin translocation – imaging, U2OS, beta-arrestin-GFP, zaprinast agonist, primary screen (AID 2058); assay type: functional;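 note: antagonist potency meaning inhibition of agonist-induced arrestin redistribution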
[20] = NIH-3T3 fibroblast cytotoxicity, dose response, cytotoxicity control, cell-based, fluorescence, Alamar Blue, secondary assay (AID 2327); assay type: functional;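 note: NIH-3T3 mouse fibroblasts cultured with fluconazole at 8 µg/mL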
[21] = target: Beta-galactosidase (Escherichia coli, UniProt Q8VNN2); test: detection-enzyme interference by beta-gal modulators – biochemical, E. coli enzyme, set 3, artefact control for CCR6 antagonist project, dose response (AID 504712); assay type: functional
[22] = system: Streptococcus sp. 'group A'; test: Streptococcus pyogenes SK(-)GAS viability under kanamycin – luminescence, BacTiterGlo, confirmation, counter-screen for streptokinase expression inhibitor project, dose response (AID 1900); assay type: functional, organism-based
[23] = target: T4, Streptokinase A (Streptococcus pyogenes serotype M1, UniProt P10520); test: viability-normalized secreted streptokinase activity reduction – plasminogen activation absorbance, OD405, dose response (AID 1914); assay type: functional, Streptococcus pyogenes M1 GAS;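 note: secreted streptokinase activity via plasminogen activation per viability signal from cell pellet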
T4 sequence (P10520 whole entry): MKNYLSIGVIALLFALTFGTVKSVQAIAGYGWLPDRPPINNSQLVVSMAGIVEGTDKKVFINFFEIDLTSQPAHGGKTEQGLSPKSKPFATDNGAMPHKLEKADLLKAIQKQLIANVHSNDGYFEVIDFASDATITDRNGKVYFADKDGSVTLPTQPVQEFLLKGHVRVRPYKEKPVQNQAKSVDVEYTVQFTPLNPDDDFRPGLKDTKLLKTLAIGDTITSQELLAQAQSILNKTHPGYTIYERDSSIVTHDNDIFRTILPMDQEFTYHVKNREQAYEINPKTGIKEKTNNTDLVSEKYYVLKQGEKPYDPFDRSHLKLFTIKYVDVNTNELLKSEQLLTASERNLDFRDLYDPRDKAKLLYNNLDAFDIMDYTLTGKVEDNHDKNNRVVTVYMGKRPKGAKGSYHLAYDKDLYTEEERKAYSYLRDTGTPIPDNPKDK

[24] = fluconazole-exposed Candida albicans growth modulators – fluorescence, retest, confirmation (AID 2467); assay type: functional, cell-based
[25] = system: Streptococcus; test: GAS UMAA2166 growth inhibition – luminescence, BacTiterGlo, counter-screen for streptokinase expression inhibitor project, dose response (AID 1915); assay type: functional, organism-based;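 note: potency for reduction of bacterial viability or growth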
[26] = target: T5, Coagulation factor XII (Homo sapiens, UniProt P00748); test: activated coagulation factor XII inhibitor potency, concentration-effect curve, cell-free (AID 716); assay type: functional
T5 sequence (P00748 whole entry): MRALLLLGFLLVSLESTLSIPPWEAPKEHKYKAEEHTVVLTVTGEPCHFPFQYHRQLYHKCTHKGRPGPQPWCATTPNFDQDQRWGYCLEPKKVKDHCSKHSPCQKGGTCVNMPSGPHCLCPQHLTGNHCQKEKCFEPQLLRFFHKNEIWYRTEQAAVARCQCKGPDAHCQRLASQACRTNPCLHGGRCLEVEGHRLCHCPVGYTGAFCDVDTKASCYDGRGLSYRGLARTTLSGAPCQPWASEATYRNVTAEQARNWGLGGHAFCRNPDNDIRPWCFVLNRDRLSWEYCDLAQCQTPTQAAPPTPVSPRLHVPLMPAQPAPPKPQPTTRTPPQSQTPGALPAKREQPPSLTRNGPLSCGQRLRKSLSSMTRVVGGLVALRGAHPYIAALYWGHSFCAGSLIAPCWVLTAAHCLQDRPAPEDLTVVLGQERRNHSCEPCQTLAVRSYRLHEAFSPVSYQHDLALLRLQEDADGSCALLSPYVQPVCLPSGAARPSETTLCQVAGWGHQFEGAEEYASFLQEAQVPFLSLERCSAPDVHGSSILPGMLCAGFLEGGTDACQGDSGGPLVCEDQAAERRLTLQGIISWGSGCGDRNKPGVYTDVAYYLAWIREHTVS

[27] = system: HeLa; test: viability loss in HeLa cells – cell-based, 24 h, cherry-picked samples, cytotoxicity control, dose response (AID 504726); assay type: functional; settings: Homo sapiens
[28] = target: T6, Heat shock factor protein 1 (Mus musculus, UniProt P38532); test: enhancement of HSF1-driven luciferase signal – cell-based, NIH3T3, luminescence, dose retest, confirmation (AID 435004); assay type: functional;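 note: stress induced by proteasome inhibitor MG132 added 30 min after compound; luciferase reporter driven by HSF1 response element in NIH3T3 cells; actives raise luminescence as potentiators of the MG132 stress response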
T6 sequence (P38532 whole entry): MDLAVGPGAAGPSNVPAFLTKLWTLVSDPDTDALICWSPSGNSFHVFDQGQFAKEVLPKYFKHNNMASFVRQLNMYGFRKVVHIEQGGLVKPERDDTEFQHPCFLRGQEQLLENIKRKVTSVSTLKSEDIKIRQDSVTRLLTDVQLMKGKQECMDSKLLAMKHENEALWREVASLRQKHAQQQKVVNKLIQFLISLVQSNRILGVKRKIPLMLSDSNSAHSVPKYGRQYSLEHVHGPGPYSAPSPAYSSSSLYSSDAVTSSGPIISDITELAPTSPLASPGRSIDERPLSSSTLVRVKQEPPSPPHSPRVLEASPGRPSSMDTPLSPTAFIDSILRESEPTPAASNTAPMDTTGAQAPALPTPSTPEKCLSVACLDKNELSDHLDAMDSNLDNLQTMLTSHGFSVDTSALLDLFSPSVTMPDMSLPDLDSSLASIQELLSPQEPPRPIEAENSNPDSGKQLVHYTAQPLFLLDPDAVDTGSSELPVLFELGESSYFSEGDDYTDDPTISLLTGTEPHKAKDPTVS

[29] = target: ORF 73 (Human herpesvirus 8, UniProt O40947); test: KSHV LANA DNA-binding disruption – biochemical, fluorescence polarization, cherry-picked samples, dose response (AID 504725); design: species or system Human gammaherpesvirus 8;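 note: fluorescence polarization of a labeled DNA duplex reporting LANA DNA binding; potency is for inhibitors that block LANA binding to the DNA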

CC(=O)Oc1ccc(NC(=O)Cc2ccccc2)c(C(=O)O)c1
EC50 [1]: > 71.5 µM (inactive)

Cc1ccccc1NC(=O)/C=C/c1ccc([N+](=O)[O-])s1
EC50 [2]: 1.6 µM (active)
IC50 [3]: 13.7 µM (inactive)
Absolute IC50 (CHOP) [4]: 10 µM
AC50 [5]: 6.17 µM (active)
EC50 [6]: 1.16 µM (active)
IC50 [7]: 2.22 µM (active)

O=C(NCCO)Nc1ccc2nc(-c3ccco3)c(-c3ccco3)nc2c1
IC50 [8]: 48.5 µM (active)
IC50 [9]: 0.579 µM (active)
IC50 [10]: 0.476 µM (active)
IC50 [11]: 50 µM (inactive)

N=c1c2c(ncn1Cc1ccco1)Oc1cc(O)ccc1C2c1ccccc1 (stereo not given)
EC50 [1]: > 71.4 µM (inactive)
IC50 [12]: 1.2 µM (active)

Cc1oc(-c2ccccc2Cl)nc1CSc1nc2c(c(=O)[nH]1)CCCC2
IC50 [13]: 3.09 µM (active)
IC50 [14]: 5.75 µM (active)
EC50 [15]: 0.73 µM (active)

Oc1ccc(/C=N/Nc2nc(-c3ccccc3F)nc3ccccc23)c(O)c1
EC50 [16]: 6.7 µM (active)
EC50 [17]: 18.4 µM (active)
EC50 [18]: 23.2 µM (active)
IC50 [12]: 1.47 µM (active)
IC50 [19]: 3.08 µM (active)

Fc1cccc2sc(Nc3nnc(-c4ccco4)o3)nc12
EC50 [20]: 79.4 µM (active)
IC50 [21]: > 66.6 µM (inactive)
EC50 [22]: 0.632 µM (active)
EC50 [23]: > 150 µM (not active)
EC50 [24]: 2.43 µM (active)
EC50 [25]: 11.2 µM (active)

Cn1c(COc2ccc(Cl)cc2)nc2ccccc2c1=O
IC50 [26]: > 50 µM (inactive)

O=C(Nc1ccccc1F)C(=Cc1sc(N2CCOCC2)nc1-c1ccccc1)C(=O)Nc1ccccc1F
EC50 [2]: 11.9 µM (active)
AC50 [27]: 292 µM (active)
EC50 [28]: > 260 µM (inactive)
EC50 [6]: 9.63 µM (active)
AC50 [29]: 16.4 µM (active)

COCCn1c(SCC(N)=O)nnc1-c1c[nH]c2ccccc12
IC50 [26]: > 50 µM (inactive)

Clc1ccc2[nH]c(-c3ccccc3)cc2c1
Absolute IC50 (CHOP) [4]: 10 µM
